The values below come from patent publication US20130172408A1, “Medicaments Based on Dinuclear Arene Ruthenium Complexes Comprising Bridging Thiolato, Selenolato or Alkoxo Ligands” (Universite de Neuchatel, priority 2010, published 2013).

“And” between values parts separate entries of the source, which are not always exact repeats. Identical values can stand only once. Like-named read-outs stand apart in the source and are kept apart here.

What is called IC50 is the concentration that inhibits the measured activity by half.

The subject of data set [1] is A2780cisR human ovarian cancer cells (cisplatin-resistant). Kind of data set: MTT assay, inhibition of cell growth, A2780cisR. The format is cell-based. Here is the method:
(§1) Human A2780 and A2780cisR ovarian carcinoma cells were obtained from the European Centre of Cell Cultures (ECACC, Salisbury, UK) and maintained in culture as described by the provider. The cells were routinely grown in RPMI 1640 medium with GlutaMAX™ containing 5% foetal calf serum (FCS) and antibiotics (penicillin and streptomycin) at 37° C. and 5% CO2.
(§2) The antiproliferative activity of complexes 9-20 was evaluated against the human ovarian A2780 cancer cell line and its cisplatin-resistant derivative A2780cisR using the MTT assay, which measures mitochondrial dehydrogenase activity as an indication of cell viability. For the evaluation of growth inhibition tests, the cells were seeded in 96-well plates (25×10^3 cells per well) and grown for 24 h in complete medium. Complexes were dissolved in DMSO and added to the required concentration to the cell culture for 72 h incubation. Solutions of the compounds were applied by diluting a freshly prepared stock solution of the corresponding compound in aqueous RPMI medium with GlutaMAX™ (20 mM). Following drug exposure, 3-(4,5-dimethylthiazol-2-yl)-2,5-diphenyltetrazolium bromide (MTT) was added to the cells at a final concentration of 0.25 mg/mL and incubated for 2 h, then the culture medium was aspirated and the violet formazan (artificial chromogenic precipitate of the reduction of tetrazolium salts by dehydrogenases and reductases) dissolved in DMSO. The optical density of each well (96-well plates) was quantified three times in triplicates at 540 nm using a multiwall plate reader (iEMS Reader MF, Labsystems, US), and the percentage of surviving cells was calculated from the ratio of absorbance of treated to untreated cells. The IC50 values for the inhibition of cell growth were determined by fitting the plot of the logarithmic percentage of surviving cells against the logarithm of drug concentration using a linear regression function. The median value and the median absolute deviation were obtained from the Excel™ software (Microsoft™) and those values are reported in Table 2.
(§3) The toxicity of further compounds in accordance with the invention shown in FIGS. 9A and 9B and of the prior art compounds PA1 and PA2 was assessed as described in Example 6.

Data set [2] concerns A2780 human ovarian cancer cells. As to the kind of experiment: MTT assay, inhibition of cell growth, A2780. The format is cell-based. Here is the method: as §1, §2, §3
In data set [3] the test system is PLC/PRF/5 human liver cancer cells. To be noted: MTT assay, from JP 7089855; cited from earlier work. In general terms: Tetrazolium assays rely on reduction of a dye to a coloured formazan, in cell work by metabolically active cells.
The next data set can be described thus: Solubility (qualitative). The data set is classed as physicochemical. To be noted: water and organic solvents. From the text:
The spectroscopic data for the analogues [18]Cl, [19]Cl and [20]Cl is in excellent agreement with that reported previously Mashima et al., Schacht et al. Chérioux et al., cited above).

A short description of data set [4]: Catalytic oxidation of glutathione to glutathione disulfide in aqueous solution.
Data set [5] in a line: Catalytic oxidation of cysteine to cystine in aqueous solution.
Data set [6] can be described thus: Stability by 1H NMR spectroscopy. The format is physicochemical. To be noted: 12 hours at 37° C. in DMSO-d6, in D2O/DMSO-d6 (95:5), and in DMSO-d6 with two drops of RPMI 1640 medium containing 5% foetal calf serum.
Setting [7] is: as described in Example 6 (Table 3), read-out: Average IC50 A2780cisR.
[8] abbreviates: as described in Example 6 (Table 3), read-out: Average IC50 A2780.
Where [9] appears, read: 72 h incubation, MTT, median value (Table 2), read-out: IC50 A2780cisR.
Where [10] appears, read: 72 h incubation, MTT, median value (Table 2), read-out: IC50 A2780.

As to `CC1=C(C)C(C)C(C)=C1C.CC1=C(C)C(C)C(C)=C1C.Sc1ccccc1.Sc1ccccc1.Sc1ccccc1.[Ru+3].[Ru+3]` [PA1, [(CsMes)2Ru2(p-SC6H5)3]^+, reference compound], the IC50 came out at 2190 nM in data set [1] (setting [7]) and 3050 nM in data set [2] (setting [8]).

Regarding `Cc1c(C)c(C)[c-](C)c1C.Cc1c(C)c(C)[c-](C)c1C.[Ru+3].[Ru+3].[S-]c1ccccc1.[S-]c1ccccc1.[S-]c1ccccc1` [PA1, [(CsMes)2Ru2(p-SC6H5)3]^+, reference compound], the IC50 in data set [3] is on record as 0.131 mg/mL.

As for `CC1=C(C)C(C)C(C)=C1C.CC1=C(C)C(C)C(C)=C1C.Cc1ccc(S)cc1.Cc1ccc(S)cc1.Cc1ccc(S)cc1.[Ru+3].[Ru+3]` [PA2, [(CsMe5)2Ru2(p-SC6H4Me)3]^+, reference compound], the IC50 in data set [1] (setting [7]) came out at 1550 nM; in data set [2] (setting [8]), 1930 nM.

Regarding `CCCCCCCOc1ccc(C(=O)OCCCCc2ccccc2)cc1.CCCCCCCOc1ccc(C(=O)OCCCCc2ccccc2)cc1.[Cl-].[Ru+2].[Ru+2].[S-]c1ccccc1.[S-]c1ccccc1.[S-]c1ccccc1` [[10]Cl, [(C6H6—(CH2)4—O—C(O)—C6H4-p-O—(CH2)6CH3)2Ru2(SPh)3]^+], the IC50 in data set [1] (setting [9]) came to 5600 nM; in data set [2] (setting [10]), 4900 nM.

For `COc1ccc(C=CC(=O)OCCc2ccccc2)cc1.COc1ccc(C=CC(=O)OCCc2ccccc2)cc1.[Cl-].[Ru+2].[Ru+2].[S-]c1ccccc1.[S-]c1ccccc1.[S-]c1ccccc1` [[11]Cl, [trans-(C6H6—(CH2)2—O—C(O)—CH═CH—C6H4-p-O—CH3)2Ru2(SPh)3]^+], the IC50 in data set [1] (setting [9]) is 1360 nM; in data set [1] (setting [7]), 1360 nM; in data set [2] (setting [10]), 820 nM; in data set [2] (setting [8]) it was 815 nM.

Consider `COc1ccc(C=CC(=O)OCCCCc2ccccc2)cc1.COc1ccc(C=CC(=O)OCCCCc2ccccc2)cc1.[Cl-].[Ru+2].[Ru+2].[S-]c1ccccc1.[S-]c1ccccc1.[S-]c1ccccc1` [[12]Cl, [trans-(C6H6—(CH2)4—O—C(O)—CH═CH—C6H4-p-O—CH3)2Ru2(SPh)3]^+], for which the IC50 was 560 nM in data set [1] (setting [9]), 545 nM in data set [1] (setting [7]), 490 nM in data set [2] (setting [10]) and 420 nM in data set [2] (setting [8]).

As for `Cc1ccc(C(C)C)cc1.Cc1ccc(C(C)C)cc1.[Cl-].[Ru+2].[Ru+2].[S-]c1ccccc1.[S-]c1ccccc1.[S-]c1ccccc1` [[18]C1, [(p-^iPrC6H4Me)2Ru2(SPh)3]^+], the values for the IC50 in data set [1] (setting [9]) and in data set [2] (setting [10]) were 250 nM and 240 nM, respectively.

With `Cc1c(C)c(C)c(C)c(C)c1C.Cc1c(C)c(C)c(C)c(C)c1C.[Cl-].[Ru+2].[Ru+2].[S-]c1ccccc1.[S-]c1ccccc1.[S-]c1ccccc1` [[19]Cl, [(C6Me6)2Ru2(SPh)3]^+], the IC50 in data set [1] (setting [9]) was 1200 nM; in data set [1] (setting [7]), 1200 nM; in data set [2] (setting [10]), 400 nM; in data set [2] (setting [8]), 433 nM.

Take [(C6H6)2Ru2(SPh)3]^+ [[17]C1]: the IC50 in data set [1] (setting [9]) is 480 nM; in data set [1] (as described in Example 6 (Table 3), listed as 17, read-out: Average IC50 A2780cisR), 253 nM and 477 nM; in data set [2] (setting [10]), 380 nM; in data set [2] (as described in Example 6 (Table 3), listed as 17, read-out: Average IC50 A2780) it was 240 nM and 377 nM. Further, the Solubility entry in the data set “Solubility (qualitative)” was “soluble in water and in organic solvents”.

Turning to “[(C6H6—(CH2)2—O—C(O)—C6H4-p-O—(CH2)6CH3)2Ru2(SPh)3]^+ [[9]Cl]”, the IC50 in data set [1] (setting [9]) was determined as 2700 nM; in data set [2] (setting [10]) it was 2200 nM.

As for “[(p-^iPrC6H4Me)2Ru2(S-p-C6H4Me)3]^+ [[20]C1]”, in data set [4], the “Catalysis of the reaction of Glutathione (GSH) to form glutathione disulfide (GSSG)” value is “very high efficiency”. Also, the “Catalysis of the reaction of Cysteine (Cys) to form Cystine” value in data set [5] was “very high efficiency”. Besides, in data set [6], the “Stability (1H NMR signals)” value was “stable under these conditions”. In addition, the IC50 in data set [1] (setting [9]) was 80 nM; in data set [1] (setting [7]), 77 nM; in data set [2] (setting [10]) it was 130 nM; in data set [2] (setting [8]) it was 130 nM.

As to “[Ru2(p-C6Me6)2(p-SC6H4OH)3]^+ [Compound 22]”, the IC50 in data set [1] (setting [7]) and in data set [2] (setting [8]) was 500 nM each time.

“[Ru2(p-MeC6H4Pr^i)2(p-SC6H4OH)3]^+ [Compound 21]”: the IC50 in data set [1] (setting [7]) was determined as 1470 nM; in data set [2] (setting [8]) it was 533 nM.
